Test [1] relates to fatty liver induced by dl-ethionine. The test is described as follows: Therapeutic effect on the dl-ethionine-induced fatty liver (Test Example 3). Type of test: in vivo, Sprague Dawley rats. As to the method: In order to examine the therapeutic effect of the inventive oral microemulsion composition, a test to measure the activity of restoring fatty liver induced by dl-ethionine was conducted as follows.
Six groups of rats, each consisting of 6 rats were prepared by the procedure of Test Example 1. A 2% (w/v) dl-ethionine saline solution was subcutaneously injected to each rat of five experimental groups (Groups 1 to 5) at a dosage of 200 mg/kg, twice a week to induce fatty liver.
The rats of Group 1 (negative control) were not treated with any therapeutic drug after the ethionine injection. The rats of Group 2 (positive control) were orally administered with BDD suspended in 1% (w/v) CMC once a day, five times a week after the ethionine injection, in an amount corresponding to 25 mg/kg of BDD; the rats of Group 3, with the Carduus marianus extract suspended in 1% (w/v) CMC, in an amount corresponding to 175 mg/kg of the Carduus marianus extract (52.5 mg/kg as silybin); and the rats of Group 4, with a simple mixture of BDD and Carduus marianusextract suspended in 1% (w/v) CMC, in an amount corresponding to 25mg/kg of BDD and 175 mg/kg of the Carduus marianus extract. The rats of Group 5 were orally administered with the formulation of Example 3 once a day, five times a week, in an amount corresponding to 3 mg/kg of BDD and 175 mg/kg of the Carduus marianus extract; and the rats of Group 6 (normal group) received neither ethionine injection nor any therapeutic drug.
One week after the administration, each rat was sacrificed, and the liver was extracted therefrom. The extracted liver was washed with saline, soaked in a 4-fold volume of potassium phosphate buffer (pH 7.5), and homogenized with a teflone-glass homogenizer. The homogenized liver was subjected to centrifugation at 600×g for 10 minutes to obtain a supernatant, which was subjected to centrifugations at 10,000×g for 20minutes, and then at […], to obtain a supernatant.
Then, the total cholesterol and triglyceride levels of each liver sample were measured by employing the supernatant in accordance with a conventional method, and the results are shown in Tables 5 and 6, respectively.

The test system of test [2] is liver damaged by CCl4. The test is described as follows: Therapeutic effect on the liver damaged by carbon tetrachloride (Test Example 1). The class given is in vivo, Sprague Dawley rats. To be noted: serum. As to the method:
The therapeutic effect of the inventive oral microemulsion composition on the liver damaged by CCl4 was examined as follows.
Thirty-six 4 to 5-week old male Sprague Dawley rats were divided into six groups each consisting of 6 rats having an average body weight of 202±5g. The rats were acclimated to the cage environment set at 23±2° C. and 55±5% relative humidity. Then 50% (v/v) solution of carbon tetrachloride in corn oil was intraperitoneally administered to each rat of five experimental groups (Groups 1 to 5) at a dose of 0.75 ml/kg, twice a week (monday and friday) to induce hepatotoxicity.
The rats of Group 1 (negative control) were not treated with any therapeutic drug after the CCl4 injection. The rats of Group 2 (positive control) were orally administered with BDD suspended in 1% (w/v) CMC (carboxymethyl cellulose) once a day, six times a week after the CCl4 injection, in an amount corresponding to 25 mg/kg of BDD; the rats of Group 3, with a Carduus marianus extract suspended in 1% (w/v) CMC, in an amount corresponding to 175 mg/kg of the Carduus marianus extract (52.5 mg/kg as silybin); and the rats of Group 4, with a simple mixture of BDD and Carduus marianus extract suspended in 1% (w/v) CMC, in an amount corresponding to 25 mg/kg of BDD and 175 mg/kg of the Carduus marianus extract. The rats of Group 5 were orally administered with the formulation of Example 3 once a day, six times a week, in an amount corresponding to 3 mg/kg of BDD and 175 mg/kg of the Carduus marianusextract; and the rats of Group 6 (normal group) were not subjected to CCl4injection and no therapeutic drugs were administered thereto.
Four weeks after the administration, the rats were sacrificed and serum samples were taken according to a preset schedule. The serum ALT (alanine aminotransferase) and AST (aspartate aminotransferase) levels were measured in accordance with a conventional method, and the results are shown in Tables 1 and 2, respectively.

[3] abbreviates: dl-ethionine-treated rats, oral once a day five times a week, one week, BDD 25 mg/kg, extract 175 mg/kg, Example 3: 3 mg/kg BDD + 175 mg/kg extract.
The mark [4] stands for this setting: versus ethionine control Group 1, one week.
[5] abbreviates: CCl4-treated rats, oral once a day six times a week, four weeks, BDD 25 mg/kg, extract 175 mg/kg, Example 3: 3 mg/kg BDD + 175 mg/kg extract.
Setting [6] is: versus CCl4 control Group 1, four weeks.

On to `COC(=O)c1cc(OC)c2c(c1-c1c(C(=O)OC)cc(OC)c3c1OCO3)OCO2` [BDD, biphenyldimethyldicarboxylate], for which, in test [1] (setting [3]), the “Total Cholesterol (average concentration ± standard deviation)” value turned out to be 22.0 ± 1.9 mg/g and the “Triglyceride (average concentration ± standard deviation)” value worked out at 10.1 ± 0.5 mg/g. For the same compound, in test [1] (setting [4]), the “Ratio of cholesterol level to a control” value is 91.3% and the “Ratio of triglylceride level to a control” value turned out to be 72.7%. For the same compound, in test [2] (setting [5]), the “ALT (average concentration ± standard deviation)” value was determined as 137.7 ± 19.5 SF U/ml and the “AST (average concentration ± standard deviation)” value came to 163.3 ± 4.5 SF U/ml. Moreover, in test [2] (setting [6]), the “Ratio of ALT level to a control” value came to 91.7% and the “Ratio of AST level to a control” value amounted to 95.2%.

For the origin of these results see patent publication US7485326B2, “Oral microemulsion composition comprising biphenyldimethyldicarboxylate and silybin” (Hanmi Pharm Co., Ltd., priority 2003, dated 2009).
